Broadly, the IC50 is the midpoint of a concentration-inhibition curve. Read a low IC50 as greater potency.

The experiment in a line: Inhibition of rabbit muscle GPa. On the set-up: species or system Oryctolagus cuniculus.

Structures are written as SMILES.

Turning to `O=C(Nc1nncs1)c1ccc(C(=O)Nc2nncs2)cc1`, the IC50 worked out at 269 µM. For the compound `COc1cccc(NC(=O)c2cc(Sc3nccn3C)c(F)cc2N)c1`, the IC50 came to 166 µM. Compound `O=C(Nc1ccccn1)c1cccc(C(=O)Nc2ccccn2)c1` displayed an IC50 of 57.6 µM.

The compound `O=C(Nc1ccccn1)c1cccc(C(=O)Nc2ccccn2)n1` had an IC50 of 425 µM. The result for `Cn1ccnc1Sc1cc(C(=O)Nc2ccccc2)c(N)cc1F` reads 215 µM. The result for `Cn1ccnc1Sc1cc(C(=O)Nc2ccc(C#N)cc2)c(N)cc1F` reads 96.1 µM; that for `Cn1ccnc1Sc1cc(C(=O)Nc2cccc(F)c2)c(N)cc1F`, 30.9 µM; that for `Cn1ccnc1Sc1cc(C(=O)Nc2cccc(C(F)(F)F)c2)c(N)cc1F`, 8.95 µM. The result for `COc1ccccc1NC(=O)c1cc(Sc2nccn2C)c(F)cc1N` reads 41.8 µM. Compound `O=C(Nc1nccs1)c1ccc(C(=O)Nc2nccs2)cc1` gave an IC50 of 337 µM.

`O=C(CN1CCN(c2ccccc2F)CC1)Nc1cccc(C(F)(F)F)c1` came in with an IC50 of 78.5 µM.

The compound `COc1ccccc1N1CCN(CC(=O)Nc2cccc(C(F)(F)F)c2)CC1` gave an IC50 of 46.1 µM.

For the compound `Cn1ccnc1Sc1cc(C(=O)NCc2ccccc2)c(N)cc1F`, 153 µM corresponded to half-maximal inhibition (IC50). Under `O=C(CN1CCN(c2ccccc2)CC1)Nc1nccs1` stands 96.9 µM; under `COc1ccc(NC(=O)c2cc(Sc3nccn3C)c(F)cc2N)cc1`, 107 µM; under `Cn1ccnc1Sc1cc(C(=O)Nc2ccccc2N)c(N)cc1F`, 95.3 µM. The result for `Cn1ccnc1Sc1cc(C(=O)Nc2cccc(N)c2)c(N)cc1F` reads 2.68 µM; that for `Cn1ccnc1Sc1cc(C(=O)Nc2cccc(C#N)c2)c(N)cc1F`, 9.87 µM; that for `O=C(CN1CCN(c2ccccc2F)CC1)Nc1nccs1`, 35.8 µM. Consider `Cc1ccc(NC(=O)c2cc(Sc3nccn3C)c(F)cc2N)cc1`, for which the IC50 was determined as 70.1 µM. Under `Cn1ccnc1Sc1cc(C(=O)Nc2ccccc2C#N)c(N)cc1F` stands 75.9 µM; under `Cn1ccnc1Sc1cc(C(=O)Nc2ccc(N)cc2)c(N)cc1F`, 91.1 µM.

For the origin of these results see ChEMBL document CHEMBL1149706, “Discovering benzamide derivatives as glycogen phosphorylase inhibitors and their binding site at the enzyme” (Bioorg Med Chem, 2007).
